Test results published in patent publication US9326506B2, “Preparation method, agricultural composition and applications of natural brassinolide analogs” (CHENGDU NEWSUN CROPSCIENCE CO., LTD, priority 2012, dated 2016).

System: rice
Test: Low temperature assay on rice seedlings
Type: in vivo
Method in brief: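 Nine-day-old etiolated rice seedlings (grown on water at 30 °C±2 °C, dark) immersed in brassinolide analogues at 1–0.0001 mg/L or pure water, held at 1–5 °C for 24 hr. Plant height, leaf area, root weight read at 3, 6, 9, 12 days; leaf and tiller number at 12 days.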

## CC(C)[C@H](C)[C@@H](O)[C@H](O)[C@@H](C)[C@H]1CCC2C3COC(=O)C4C[C@H](O)[C@H](O)C[C@]4(C)C3CC[C@@]21C (stereo partly shown) [BR1]
0.01 mg/l, 3 °C, 9 days
  Height: 7.4 cm
  Weight of root: 2.9 g
0.01 mg/l, 3 °C, 12 days
  Area of leaf: 13.2 cm^2
  Height: 7.6 cm
  Number of leaf: 3
  Number of tiller: 2
  Weight of root: 2.9 g
0.01 mg/l, 4 °C, 3 days
  Area of leaf: 10.8 cm^2
  Height: 7.1 cm
  Weight of root: 2.5 g
0.01 mg/l, 4 °C, 6 days
  Area of leaf: 12.4 cm^2
  Height: 7.3 cm
  Weight of root: 2.6 g
0.01 mg/l, 4 °C, 9 days
  Area of leaf: 13.4 cm^2
  Height: 7.5 cm
  Weight of root: 2.9 g
0.01 mg/l, 4 °C, 12 days
  Area of leaf: 13.7 cm^2
  Height: 7.8 cm
  Number of leaf: 3
  Number of tiller: 2
  Weight of root: 3.0 g
0.01 mg/l, 5 °C, 3 days
  Area of leaf: 10.9 cm^2
  Height: 7.7 cm
  Weight of root: 2.8 g
0.01 mg/l, 5 °C, 6 days
  Area of leaf: 13.9 cm^2
  Height: 7.8 cm
  Weight of root: 3.0 g
0.01 mg/l, 5 °C, 9 days
  Area of leaf: 17.4 cm^2
  Height: 8.2 cm
  Weight of root: 3.4 g
0.01 mg/l, 5 °C, 12 days
  Area of leaf: 18 cm^2
  Height: 8.5 cm
  Number of leaf: 4
  Number of tiller: 3
  Weight of root: 3.9 g
0.1 mg/l, 1 °C, 3 days
  Area of leaf: 10.1 cm^2
  Height: 7.0 cm
  Weight of root: 2.8 g
0.1 mg/l, 1 °C, 6 days
  Area of leaf: 11.9 cm^2
  Height: 7.2 cm
  Weight of root: 3.0 g
0.1 mg/l, 1 °C, 9 days
  Area of leaf: 12.9 cm^2
  Height: 7.3 cm
  Weight of root: 3.4 g
0.1 mg/l, 1 °C, 12 days
  Area of leaf: 13.4 cm^2
  Height: 7.5 cm
  Number of leaf: 3
  Number of tiller: 3
  Weight of root: 3.6 g
0.1 mg/l, 2 °C, 3 days
  Area of leaf: 10.4 cm^2
  Height: 7.1 cm
  Weight of root: 2.9 g
0.1 mg/l, 2 °C, 6 days
  Area of leaf: 11.8 cm^2
  Height: 7.2 cm
  Weight of root: 3.0 g
0.1 mg/l, 2 °C, 9 days
  Area of leaf: 12.8 cm^2
  Height: 7.3 cm
  Weight of root: 3.1 g
0.1 mg/l, 2 °C, 12 days
  Area of leaf: 13.6 cm^2
  Height: 7.4 cm
  Number of leaf: 3
  Number of tiller: 3
  Weight of root: 3.2 g
0.1 mg/l, 3 °C, 3 days
  Area of leaf: 10.5 cm^2
  Height: 7.2 cm
  Weight of root: 2.5 g
0.1 mg/l, 3 °C, 6 days
  Area of leaf: 12 cm^2
  Height: 7.3 cm
  Weight of root: 2.6 g
0.1 mg/l, 3 °C, 9 days
  Area of leaf: 12.8 cm^2
  Height: 7.4 cm
  Weight of root: 2.9 g
0.1 mg/l, 3 °C, 12 days
  Area of leaf: 13.4 cm^2
  Height: 7.6 cm
  Number of leaf: 3
  Number of tiller: 2
  Weight of root: 2.9 g
0.1 mg/l, 4 °C, 3 days
  Area of leaf: 10.8 cm^2
  Height: 7.1 cm
  Weight of root: 2.5 g
0.1 mg/l, 4 °C, 6 days
  Area of leaf: 12.5 cm^2
  Height: 7.4 cm
  Weight of root: 2.7 g
0.1 mg/l, 4 °C, 9 days
  Area of leaf: 13.5 cm^2
  Height: 7.5 cm
  Weight of root: 2.9 g
0.1 mg/l, 4 °C, 12 days
  Area of leaf: 13.8 cm^2
  Height: 7.7 cm
